“And” between values parts separate entries of the source, which are not always exact repeats. Equal entries are not always repeated. Where two headings read alike, the source gives them in different places.
Assays:
[1] = biological target: T1, C5a receptor (Homo sapiens, UniProt P21730); test: Calcium Mobilization Assay (C5a-induced Ca2+ mobilization, FLIPR, differentiated U937 cells); format: cell-based; design: endogenous in cells; host or cells: U937 cells differentiated with dibutyryl cAMP; settings: […] recombinant human C5a, 20 min pre-incubation, multiple values = duplicate experiments, read-out: C5a Induced Ca Mobil. Average IC50
T1 sequence (P21730 1-350): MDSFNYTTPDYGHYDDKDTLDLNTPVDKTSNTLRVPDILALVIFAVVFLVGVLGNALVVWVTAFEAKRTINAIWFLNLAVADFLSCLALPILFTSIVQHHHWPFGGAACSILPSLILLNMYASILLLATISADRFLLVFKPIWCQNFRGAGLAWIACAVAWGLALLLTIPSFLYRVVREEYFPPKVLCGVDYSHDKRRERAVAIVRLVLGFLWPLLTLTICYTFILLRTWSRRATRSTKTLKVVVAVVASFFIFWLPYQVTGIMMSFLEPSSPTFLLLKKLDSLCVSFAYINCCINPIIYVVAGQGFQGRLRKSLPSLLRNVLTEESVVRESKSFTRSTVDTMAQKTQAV
Summary of the method: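 Differentiated U937 cells (1 mM dibutyryl cAMP, 2–3 days) loaded with Fluo-3AM, pre-incubated with compound 20 min at room temperature (1% DMSO), then stimulated with 1.5 nM recombinant human C5a. Intracellular Ca2+ fluorescence recorded on FLIPR each second to 2 min post-addition; maximal fluorescence used.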

[2] = biological target: T1, C5a receptor; test: biochemical
Experimental: (§1) Competition binding assays for C5a receptors were performed by incubation of differentiated U937 cells (200,000 cells/well), test compound (1% DMSO) and [^125I]-C5a (Bolton & Hunter labeled, Perkin Elmer, specific activity=2200 Ci/mmol, 0.05 nM final) in binding buffer consisting of 50 mM HEPES, 5 mM MgCl2, 1 mM CaCl2, 0.5% protease-free BSA, 0.02% NaN3, pH 7.4. 100× solutions of test compounds were prepared in DMSO and further diluted in binding buffer. Non-specific binding was defined in wells containing 100 nM recombinant C5a. Cells and compound were pre-incubated for 30 min at RT. After addition of the radioligand, further incubation for 60 min occurred at 4° C. Cells were harvested on GF/B filters—presoaked in 0.5% polyethylenimine, followed by washing with binding buffer containing 500 mM NaCl, pH 7.4. Filter bound radioactivity was determined by liquid scintillation counting. IC50 and Ki values were calculated using non-linear regression in Graphpad Prism. Ki is calculated using the equation of Cheng and Prusoff (Biochem. Pharmacol. 1973, 22: 3099-3108)

[3] = biological target: T1, C5a receptor; test: [125I]-C5a Radioligand Binding Assay (competition binding, differentiated U937 cells); settings: [125I]-C5a 0.05 nM, U937 cells, multiple values = duplicate experiments; for inhibition at 1 µM: read-out: [125I]-C5a Binding % Inhibition 1 μM, test compound 1 μM; for inhibition at 10 µM: read-out: [125I]-C5a Binding % Inhibition 10 μM, test compound 10 μM; for [125I]-C5a Binding % Inhibition 1 μM: test compound 1 μM; for [125I]-C5a Binding % Inhibition 10 μM: test compound 10 μM;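 as to all read-outs here: cells preincubated with compound 30 min at room temperature, then 60 min at 4 °C with radioligand, bound counts read by scintillation, nonspecific binding defined with 100 nM C5a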
Experimental: as §1

[4] = biological target: T1, C5a receptor
Experimental: as §1

## CCc1cccc(CC)c1-c1cc(OC)c2c([n+]1[O-])CCCC2N(CC)c1cccc2ccccc12 (racemic) [Compound 19, (±)-[2-(2,6-Diethyl-phenyl)-4-methoxy-1-oxy-5,6,7,8-tetrahydro-quinolin-5-yl]-ethyl-naphthlen-1-yl-amine]
[1]
  IC50: 161 nM
[2]
  Ki: 106 nM
[3]
  inhibition at 1 µM: 81%
  inhibition at 10 µM: 86%
  [125I]-C5a Binding % Inhibition 1 μM: 82%
  [125I]-C5a Binding % Inhibition 10 μM: 98%

## CCc1cccc(CC)c1-c1cc(OC)c2c(n1)CCCC2N(C)c1cccc2ccccc12 (racemic) [Compound 20, (±)-[2-(2,6-Diethyl-phenyl)-4-methoxy-5,6,7,8-tetrahydro-quinolin-5-yl]-methyl-naphthlen-1-yl-amine]
[1]
  IC50: 165 nM
[2]
  Ki: 7.3 nM
[3]
  inhibition at 1 µM: 84%
  inhibition at 10 µM: 93%
  [125I]-C5a Binding % Inhibition 1 μM: 99%
  [125I]-C5a Binding % Inhibition 10 μM: 102% and 100%

## CCc1ccccc1-c1cc(OC)c2c(n1)CCCC2N(CC)c1cccc2ccccc12 (racemic) [Compound 39, (±)-Ethyl-[2-(2-ethyl-phenyl)-4-methoxy-5,6,7,8-tetrahydro-quinolin-5-yl]-naphthlen-1-yl-amine]
[1]
  IC50: 647 nM
[2]
  Ki: 86 nM
[3]
  inhibition at 1 µM: 81%
  inhibition at 10 µM: 87%
  [125I]-C5a Binding % Inhibition 1 μM: 90%
  [125I]-C5a Binding % Inhibition 10 μM: 98%

## CCc1cccc(CC)c1-c1ccc2c(n1)CCCC2N(CC)c1cccc2ccccc12 (racemic) [Compound 109, (±)-[2-(2,6-Diethyl-phenyl)-5,6,7,8-tetrahydro-quinolin-5-yl]-ethyl-naphthlen-1-yl-amine]
[1]
  IC50: > 10000 nM
[2]
  Ki: 1060 nM
[3]
  inhibition at 10 µM: 83%
  [125I]-C5a Binding % Inhibition 1 μM: 65% and 43%
  [125I]-C5a Binding % Inhibition 10 μM: 78%

## CCN(c1cccc2ccccc12)C1CCCc2nc(-c3c(OC)cccc3OC)cc(OC)c21 (stereo not drawn) [Compound 58]
[1]
  IC50: 1770 nM
[2]
  Ki: 1160 nM
[3]
  inhibition at 1 µM: 59%
  inhibition at 10 µM: 83%
  [125I]-C5a Binding % Inhibition 1 μM: 46%
  [125I]-C5a Binding % Inhibition 10 μM: 88%

## CCN(c1cccc2ccccc12)C1CCCc2nc(-c3cccc4ccccc34)cc(OC)c21 (stereo not drawn) [Compound 78]
[4]
  Ki: 368 nM
[1]
  IC50: 5860 nM
[3]
  inhibition at 1 µM: 71%
  inhibition at 10 µM: 85%
  [125I]-C5a Binding % Inhibition 1 μM: 72%
  [125I]-C5a Binding % Inhibition 10 μM: 95%

## CCc1cccc(CC)c1-c1cc(OC)c2c(n1)CCCC2N(C)c1ccccc1 (stereo not drawn) [Compound 82]
[4]
  Ki: 678 nM
[1]
  IC50: 7940 nM
[3]
  inhibition at 1 µM: 66%
  inhibition at 10 µM: 81%
  [125I]-C5a Binding % Inhibition 1 μM: 55%
  [125I]-C5a Binding % Inhibition 10 μM: 76%

## CCc1cccc(CC)c1-c1cc(OC)c2c(n1)CCCC2N(CC)Cc1ccccc1 (stereo not drawn) [Compound 85]
[1]
  IC50: > 10000 nM
[2]
  Ki: 963 nM
[3]
  inhibition at 1 µM: 56%
  inhibition at 10 µM: 75%
  [125I]-C5a Binding % Inhibition 1 μM: 49%
  [125I]-C5a Binding % Inhibition 10 μM: 79%

## CCc1cccc(CC)c1-c1cc(OC)c2c(n1)CCCC2N1Cc2ccccc2C1 (stereo not drawn) [Compound 89]
[1]
  IC50: > 10000 nM
[2]
  Ki: 1700 nM
[3]
  inhibition at 10 µM: 75%
  [125I]-C5a Binding % Inhibition 1 μM: 71% and 37%
  [125I]-C5a Binding % Inhibition 10 μM: 77%

## CCc1cccc(CC)c1-c1cc(OC)c2c(n1)CCCC2N(C)Cc1cccc2ccccc12 (stereo not drawn) [Compound 90]
[1]
  IC50: > 10000 nM
[2]
  Ki: 409 nM
[3]
  inhibition at 1 µM: 87%
  inhibition at 10 µM: 86%
  [125I]-C5a Binding % Inhibition 1 μM: 71%
  [125I]-C5a Binding % Inhibition 10 μM: 84%

## CCc1cccc(CC)c1-c1cc(OC)c2c(n1)CCCC2N(C)C1Cc2ccccc2C1 (stereo not drawn) [Compound 95]
[1]
  IC50: > 10000 nM
[2]
  Ki: 2060 nM
[3]
  inhibition at 10 µM: 68%
  [125I]-C5a Binding % Inhibition 1 μM: 45% and 24%
  [125I]-C5a Binding % Inhibition 10 μM: 80%
